Format in all cases: in vivo, mouse
Series [1] relates to Phosphorylated Junser73. Briefly: Anti-pJun immunofluorescence. On the procedure:
(§1) Tissue-mounted slides were processed for fluorescence microscopy as follows: Sections were rinsed in coplin jars for 45 minutes at room temperature (RT) in three changes of PBS. Sections were then incubated at RT for 30 minutes in a blocking permeabilization solution made of 5% normal goat serum (NGS), 5% normal rabbit serum (NRS) or 5% BlokHen II (Ayes Labs, Inc., Tigard, Oreg.), 0.05% Triton X-100 and PBS. Subsequently, the blocking solution was tipped off and the slides were rinsed in PBS for 2 minutes. […]

Series [2] has as its system Tyrosine Hydroxylase (dopaminergic cells). Briefly: Tyrosine hydroxylase immunohistochemistry. Conditions: striatum, SG-fed, either time-point. On the procedure: Labelling of dopaminergic neurons in brain sections was identified by antibodies for tyrosine hydroxylase (Morrow, C. E., Bandstra, et al., (2001) Neurotoxicol Teratol. 23, 533-44) and indirect immunoperoxidase staining. Sections were incubated in blocking serum for 2 hours then with the primary antibody (rabbit anti-tyrosine hydroxylase, 1:500, Affinity Bioreagents, Golden, Colo., USA) for 3 hours at RT. Sections were rinsed and incubated in biotinylated goat anti-rabbit IgG (1:100; Vector laboratories Inc., Burlingame, USA) for 30 minutes at RT, then visualized using the ABC method (Vectastain Elite ABC kit, Vector Laboratories Inc.).
The numbers of immunoreactive somata or inclusions were counted across the ventral horn of the spinal cord, across brain hemispheres, or per dorsal or ventral root with the 40× objective lens in a 600 μm/600 μm area within region perimeters defined by a mouse brain atlas (2001). For each animal, eight cross-sections per spinal cord or brain region were studied. An average of both the right and left ventral horn for each of the eight cross sections was generated giving a final averaged number for each animal in each of the spinal cord areas. […]

For series [3], the system named is Ionized calcium-binding adaptor molecule-1 (microglia). Briefly: Anti-IBA-1 immunofluorescence, microglia counts. Conditions: SG-fed group over time (35 to 52 wk). The procedure:
as §1

Marks after values point to notes of the source that are not given here.

For the molecule `CC[C@H](/C=C/[C@@H](C)[C@H]1CC[C@H]2[C@@H]3CC=C4C[C@@H](O[C@@H]5O[C@H](CO)[C@@H](O)[C@H](O)[C@H]5O)CC[C@]4(C)[C@H]3CC[C@]12C)C(C)C` [SG, Stigmasterol β-D-Glucopyranoside], the “Anti-pJun immunoreactive cells over time” value in series [1] (SG-fed group over time (35 to 52 wk)) was “Anti-pJun immunoreactive cells (SG-fed group over time) (ns)”. Moreover, the “Anti-pJun, change” value in series [1] (SG-fed vs control, Time-point 1 (35 wk)) is “Anti-pJun: +199%*”. In addition, the Anti-pJun result in series [1] (SG-fed vs control, Time-point 2 (52 wk)) is reported as “Anti-pJun (ns)”. For the same molecule, the “Decrease in tyrosine hydroxylase optical density in striata” value in series [2] is recorded as “not significant”. Besides, in series [3], the “Anti-IBA-1 immunoreactive cells over time” value is given as “Anti-IBA-1 immunoreactive cells (SG-fed group over time) (ns)”.

Source of the values: patent US9573972B2, “Nurotoxic sterol glycosides” (priority 2008, dated 2017).
